The values that follow come from patent publication US12599582B2, “Pyrrole compounds” (ALIGOS THERAPEUTICS, INC., priority 2019, dated 2026).

The experiment has as its system HBV. Kind of experiment: HBV-DNA Antiviral Assay Using HepG2.2.15 Cells (extracellular HBV DNA by qPCR). It counts as cell-based, hepatitis B virus (HBV). The settings on record: Hepatitis B virus; HBV DNA inhibition, HepG2.2.15 cells, extracellular HBV DNA by qPCR; read-out: EC50. On the procedure:
The following assay procedure describes the HBV antiviral assay. This assay uses HepG2.2.15 cells, which have been transfected with HBV genome, and extracellular HBV DNA quantification as endpoint. Cell viability is assessed in parallel by measuring the intracellular ATP content using the CellTiter-Glo® reagent from Promega.
On day 0, HepG2.2.15 cells were seeded in 96-well plates at a density of 6.0×10^4 cells/well (0.1 mL/well). The cells were incubated at 37° C. and 5% CO2.
On day 1, the test articles were diluted and added to cell culture wells (8 concentrations, 4-fold dilution, in duplicate). GLS4, Tenofovir and Sorafenib were used as reference compounds. 100 μL of culture medium containing the compounds was added to the plate, and the final total volume per well was 200 μL. The final concentration of DMSO in the culture medium was 0.5%. The plate map of compound treatment is shown below. The cells were cultured at 37° C. and 5% CO2 for 3 days.
On day 4, the plates were refreshed with culture media with compounds.
On day 7, cell viability was assessed using the CellTiter-Glo®, and the cell culture supernatants were collected for determination of HBV DNA by qPCR.
Extracellular DNA was isolated with QIAamp 96 DNA Blood Kit per the manufacturer's manual. HBV DNA was then quantified by qPCR with HBV specific primers and probes as specified in Table 1 using the FastStart Universal MasterMix from Roche on an ABI-7900HT. The PCR cycle program consisted of 95° C. for 10 min, followed by 40 cycles at 95° C. for 15 sec and 60° C. for 1 min.
A DNA standard was prepared by dilution of the pAAV2 HBV1.3 plasmid with concentrations ranging from 10 to 1×10^7 copies/uL and used to generate a standard curve by plotting Ct value vs. the concentration of the HBV plasmid DNA standard. The quantity of HBV DNA in each sample was determined by interpolating from the standard curve.
Cell viability was calculated as follows: % Cell viability=(luminescence value of test sample−average luminescence value of blank)/(average luminescence value of 0.5% DMSO control−average luminescence of blank)×100%. HBV DNA inhibition was calculated as follows: 100−(HBV DNA copy number of test sample−HBV DNA copy number of ETV)/HBV DNA copy number of 0.5% DMSO control−HBV DNA copy number of ETV)×100%. The CC50, EC50 and EC90 values were determined by dose-response curves fitted by GraphPad Prism using “log (agonist) vs. response—Variable slope”.
For orientation: Real-time PCR tracks product formation cycle by cycle.

As to `C#C[C@](C)(CO)NC(=O)C(=O)c1c(C)c(C(=O)Nc2ccc(F)c(C(F)(F)F)c2)n(C)c1C` [Compound 66a, (R)—N-(4-fluoro-3-(trifluoromethyl)phenyl)-4-(2-((1-hydroxy-2-methylbut-3-yn-2-yl)amino)-2-oxoacetyl)-1,3,5-trimethyl-1H-pyrrole-2-carboxamide], the EC50 is under 1 nM.
As to `C#C[C@H](NC(=O)C(=O)c1c(C)c(C(=O)Nc2ccc(F)c(C#N)c2)n(C)c1C)C(C)(C)C` [Compound 30a, N-(3-cyano-4-fluoro-phenyl)-1,3,5-trimethyl-4-[2-oxo-2-[[(1R)-1-tert-butylprop-2-ynyl]amino]acetyl]pyrrole-2-carboxamide], the EC50 was under 1 nM.
For the compound `C=CC1(NC(=O)C(=O)c2c(Cl)c(C(=O)Nc3ccc(F)c(C#N)c3)n(C)c2C)CC(F)(F)C1` [Compound 51, 3-chloro-N-(3-cyano-4-fluoro-phenyl)-4-[2-[(3,3-difluoro-1-vinyl-cyclobutyl)amino]-2-oxo-acetyl]-1,5-dimethyl-pyrrole-2-carboxamide], the EC50 was under 1 nM.
For the compound `C#CC1(NC(=O)C(=O)c2c(C)c(C(=O)Nc3ccc(F)c(C#N)c3)n(C)c2C)CCOCC1` [Compound 107, N-(3-cyano-4-fluoro-phenyl)-4-[2-[(4-ethynyltetrahydropyran-4-yl)amino]-2-oxo-acetyl]-1,3,5-trimethyl-pyrrole-2-carboxamide], the EC50 lay within 1 to 10 nM.
With `C=C[C@@](C)(CO)NC(=O)C(=O)c1c(C)c(C(=O)Nc2ccc(F)c(C#N)c2)n(C)c1C` [Compound 72b, N-(3-cyano-4-fluoro-phenyl)-1,3,5-trimethyl-4-[2-oxo-2-[[(1S)-1-(hydroxymethyl)-1-methyl-allyl]amino]acetyl]pyrrole-2-carboxamide], the concentration for a half-maximal effect (EC50) fell in the range of 1 to 10 nM.
With `C#CC1(NC(=O)C(=O)c2c(C)c(C(=O)Nc3ccc(F)c(F)c3)n(C)c2C)COC1` [Compound 86, N-(3,4-difluorophenyl)-4-[2-[(3-ethynyloxetan-3-yl)amino]-2-oxo-acetyl]-1,3,5-trimethyl-pyrrole-2-carboxamide], the EC50 was in the range of 1 to 10 nM.
Under `Cc1c(C(=O)C(=O)NC(C)(C)c2cscn2)c(C)n(C)c1C(=O)Nc1ccc(F)c(C#N)c1` [Compound 140, N-(3-cyano-4-fluoro-phenyl)-1,3,5-trimethyl-4-[2-[(1-methyl-1-thiazol-4-yl-ethyl)amino]-2-oxo-acetyl]pyrrole-2-carboxamide] stands 1 to 10 nM.
In the case of `C#CC1(NC(=O)C(=O)c2c(C)c(C(=O)Nc3ccc(F)c(C#N)c3)n(C)c2C)CC(O)C1` (stereo not drawn) [Compound 32, N-(3-cyano-4-fluorophenyl)-4-[[(1-ethynyl-3-hydroxycyclobutyl)carbamoyl]carbonyl]-1,3,5-trimethylpyrrole-2-carboxamide], the EC50 lay in the range of 1 to 10 nM.
Consider `Cc1c(C(=O)C(=O)NC(C)(C)c2cnn(C)c2)c(C)n(C)c1C(=O)Nc1ccc(F)c(C#N)c1` [Compound 70, N-(3-cyano-4-fluoro-phenyl)-1,3,5-trimethyl-4-[2-[[1-methyl-1-(1-methylpyrazol-4-yl)ethyl]amino]-2-oxo-acetyl]pyrrole-2-carboxamide], for which the concentration giving a half-maximal response (EC50) is 1 to 10 nM.
For the compound `C#C[C@@](C)(NC(=O)C(=O)c1c(C)c(C(=O)Nc2ccc(F)c(C#N)c2)n(C)c1C)C(F)(F)F` [Compound 79a, N-(3-cyano-4-fluoro-phenyl)-1,3,5-trimethyl-4-[2-oxo-2-[[(1R)-1-methyl-1-(trifluoromethyl)prop-2-ynyl]amino]acetyl]pyrrole-2-carboxamide], the EC50 fell in the range of 1 to 10 nM.
Under `C=CC1(NC(=O)C(=O)c2c(C)c(C(=O)Nc3ccc(F)c(C#N)c3)n(C)c2Cl)COC1` [Compound 41, 5-chloro-N-(3-cyano-4-fluoro-phenyl)-1,3-dimethyl-4-[2-oxo-2-[(3-vinyloxetan-3-yl)amino]acetyl]pyrrole-2-carboxamide] stands 1 to 10 nM; under `C#CCNC(=O)C(=O)c1cn(C)c(C(=O)Nc2ccc(F)c(C#N)c2)c1Cl` [Compound 10, 3-chloro-N-(3-cyano-4-fluoro-phenyl)-1-methyl-4-[2-oxo-2-(prop-2-ynylamino)acetyl]pyrrole-2-carboxamide], 10 to 100 nM; under `Cc1c(C(=O)C(=O)NC(C)(C)c2ccc[nH]c2=O)c(C)n(C)c1C(=O)Nc1ccc(F)c(C#N)c1` [Compound 161, N-(3-cyano-4-fluoro-phenyl)-1,3,5-trimethyl-4-[2-[[1-methyl-1-(2-oxo-1H-pyridin-3-yl)ethyl]amino]-2-oxo-acetyl]pyrrole-2-carboxamide], 1 to 10 nM.
Next, `Cc1c(C(=O)C(=O)NC(C)(C)c2ccncn2)c(C)n(C)c1C(=O)Nc1ccc(F)c(C#N)c1` [Compound 152, N-(3-cyano-4-fluoro-phenyl)-1,3,5-trimethyl-4-[2-[(1-methyl-1-pyrimidin-4-yl-ethyl)amino]-2-oxo-acetyl]pyrrole-2-carboxamide]: 1 to 10 nM.
Regarding `C#C[C@@H](NC(=O)C(=O)c1c(C)c(C(=O)Nc2ccc(F)c(C#N)c2)n(C)c1C)C1COC1` [Compound 58, N-(3-cyano-4-fluoro-phenyl)-1,3,5-trimethyl-4-[2-oxo-2-[[(1S)-1-(oxetan-3-yl)prop-2-ynyl]amino]acetyl]pyrrole-2-carboxamide], the EC50 fell in the range of 1 to 10 nM.
For the compound `C#C[C@](C)(NC(=O)C(=O)c1c(C)c(C(=O)Nc2ccc(F)c(C#N)c2)n(C)c1C)C(F)(F)F` [Compound 79b, N-(3-cyano-4-fluoro-phenyl)-1,3,5-trimethyl-4-[2-oxo-2-[[(1S)-1-methyl-1-(trifluoromethyl)prop-2-ynyl]amino]acetyl]pyrrole-2-carboxamide], the EC50 was 1 to 10 nM.
Under `C#C[C@H](NC(=O)C(=O)c1c(C)c(C(=O)Nc2ccc(F)c(C(F)(F)F)c2)n(C)c1C)C1CC1` [Compound 38a, N-[4-fluoro-3-(trifluoromethyl)phenyl]-1,3,5-trimethyl-4-[2-oxo-2-[[(1R)-1-cyclopropylprop-2-ynyl]amino]acetyl]pyrrole-2-carboxamide] stands under 1 nM; under `C#CC1(N(COC(=O)[C@@H](N)C(C)C)C(=O)C(=O)c2c(C)c(C(=O)Nc3ccc(F)c(C#N)c3)n(C)c2C)COC1` [Compound 105, [[2-[5-[(3-cyano-4-fluoro-phenyl)carbamoyl]-1,2,4-trimethyl-pyrrol-3-yl]-2-oxo-acetyl]-(3-ethynyloxetan-3-yl)amino]methyl-(2S)-2-amino-3-methyl-butanoate], 1 to 10 nM; under `C#CC1(NC(=O)C(=O)c2c(C)c(C(=O)Nc3ccc(F)c(C#N)c3)n(C)c2C)CCCC1` [Compound 109, N-(3-cyano-4-fluoro-phenyl)-4-[2-[(1-ethynylcyclopentyl)amino]-2-oxo-acetyl]-1,3,5-trimethyl-pyrrole-2-carboxamide], 1 to 10 nM.
Under `C#CCNC(=O)C(=O)c1c(C)c(C(=O)Nc2ccc(F)c(C#N)c2)n(C)c1Cl` [Compound 9, 5-chloro-N-(3-cyano-4-fluoro-phenyl)-1,3-dimethyl-4-[2-oxo-2-(prop-2-ynylamino)acetyl]pyrrole-2-carboxamide] stands 1 to 10 nM.
Regarding `C=CCNC(=O)C(=O)c1c(C)c(C(=O)Nc2ccnc(Br)c2F)n(C)c1C` [Compound 5, 4-[2-(allylamino)-2-oxo-acetyl]-N-(2-bromo-3-fluoro-4-pyridy1)-1,3,5-trimethyl-pyrrole-2-carboxamide], the EC50 fell in the range of 10 to 100 nM.
Under `Cc1c(C(=O)C(=O)NC(C)(C)c2cccnc2)c(C)n(C)c1C(=O)Nc1ccc(F)c(C(F)(F)F)c1` [Compound 100, N-[4-fluoro-3-(trifluoromethyl)phenyl]-1,3,5-trimethyl-4-[2-[[1-methyl-1-(3-pyridyl)ethyl]amino]-2-oxo-acetyl]pyrrole-2-carboxamide] stands under 1 nM; under `Cc1c(C(=O)C(=O)NC(C)(C)c2ncc[nH]2)c(C)n(C)c1C(=O)Nc1ccc(F)c(C#N)c1` [Compound 131, N-(3-cyano-4-fluoro-phenyl)-4-[2-[[1-(1H-imidazol-2-yl)-1-methyl-ethyl]amino]-2-oxo-acetyl]-1,3,5-trimethyl-pyrrole-2-carboxamide], 1 to 10 nM; under `C#CCNC(=O)C(=O)c1cc(C(=O)Nc2ccc(F)c(C#N)c2)n(C)c1C` [Compound 27, N-(3-cyano-4-fluoro-phenyl)-1,5-dimethyl-4-[2-oxo-2-(prop-2-ynylamino)acetyl]pyrrole-2-carboxamide], 10 to 100 nM.

By EC50 is commonly meant the midpoint of the concentration-response curve.
